Values belong to the molecule of their own block, whether it stands above or below them.
Columns and labels:
[1] = tested on: mitochondria permeability transition (MPT); assay: MPT modulation assay, digitonin-permeabilized 293T cells, cuvette spectrofluorimeter; assay type: cell-based, human
Experimental: The transition induction effect on MPT by the MPT effector, diamide (a thiol oxidizing agent and pro-oxidant) were performed with a second cell line, 293T. The 293T cells were suspended in 2 milliliters of growth media, DMEN and 10% FBS, with 100 micromolar of ethacrynic acid (1×10^7 cells/ml) and preincubated for 14 minutes to remove ability of cells to deal with oxidative stress making them susceptible to the pro-oxidant. The cells were centrifuged, media aspirated, resuspended in 2 milliliters of respiratory media containing digitonin (MM-D), and transferred into a cuvette. The digitonin (dig) in MM-TD permeabilizes the cells. The cuvette was placed in a LS50B Perkin Elmer Spectrofluorimeter and 40 micromolar CaCl2 in H2O was added into the suspension. After approximately three minutes 500 micromolar diamide was dispensed into the cuvette.

[2] = tested on: mitochondria permeability transition (MPT); assay: High-throughput MPT modulation assay, permeabilized HepG2 cells with and without thapsigargin, FLIPR 384; assay type: cell-based, human; settings: compounds 1 micromolar
Experimental: HepG2 cells (hepatocellular carcinoma, ATCC HB-8065), in suspension, were used to determine the effect of these compounds on mitochondria Ca^2+ sequestration by monitoring extramitochondrial Ca^2+ concentrations in the presence or absence of the Ca^2+ uptake inhibitor of the endoplasmic reticulum, thapsigargin (Calbiochem, San Diego, Calif.). On the day of the assay solutions of the respiratory media containing digitonin with thapsigarin (MM-TD) and without thapsigarin (MM-D) were prepared as previously described. Calcium chloride was added to each to a final concentration of 6 micromolar Ca^2+, to yield MM-TD, 6 uM Ca, and MM-D, 6 uM Ca. Ten times (10×) stock solutions were prepared for the assay by the addition of each of the compounds to final concentrations of 10 micromolar in MM. Ten times (10×) solutions of CaCl2 was prepared in MM or MM-T to concentrations of 200 micromolar, for the second addition.
The HepG2 cells were trypsinized from near-confluent flasks in growth media (Eagle's MEM with non-essential amino acids, sodium pyruvate and Earle's BSS, 90%; FBS 10%). Cells were centrifuged, media was aspirated, and the cells were resuspended to 1×10^7 cells per milliliter in MM-TD, 6 uM Ca and MM-D, 6 uM Ca, whereby Ca^2+ and the indicator dye enter the cells and Ca^2+ becomes sequestered in mitochondria. One hundred (100) microliters of the cell suspension was delivered to each well of a microtiter plate. The plate was placed in the FLIPR 384 warmed to 37° C. An 11.1 microliter volume of the 10× stock solutions with the test compounds were dispensed into designated wells such that the assay concentration are 1 micromolar. After a three minute interval, a Ca^2+ pulse of 20 micromolar was delivered by adding 12.3 microliters of the 10× CaCl2 solutions containing 200 micromolar Ca^2+.

Ca^2+ uniporter [3] = target: T1, Ca^2+ uniporter (Homo sapiens, UniProt Q8NE86); assay: High-throughput uniporter assay of different compounds, permeabilized HepG2 cells with and without thapsigargin, FLIPR II; assay type: cell-based
T1 construct: The effects of several intracellular Ca^2+ modulating agents (ICMAs) on permeabilized HepG2 cells were examined; endogenous in cells; host or cells: HepG2 (ATCC HB-8065), digitonin-permeabilized, in suspension
T1 sequence (Q8NE86 51-351): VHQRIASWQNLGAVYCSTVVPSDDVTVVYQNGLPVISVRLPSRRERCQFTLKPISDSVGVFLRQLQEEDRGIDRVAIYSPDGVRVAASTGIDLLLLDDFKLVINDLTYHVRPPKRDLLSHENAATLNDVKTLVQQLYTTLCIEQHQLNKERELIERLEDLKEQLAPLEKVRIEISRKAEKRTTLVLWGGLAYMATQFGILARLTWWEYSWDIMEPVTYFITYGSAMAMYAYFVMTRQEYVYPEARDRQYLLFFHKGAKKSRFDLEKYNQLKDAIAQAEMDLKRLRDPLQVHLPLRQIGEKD
T1 sequence (Q9H4I9 48-107 partner limits assumed): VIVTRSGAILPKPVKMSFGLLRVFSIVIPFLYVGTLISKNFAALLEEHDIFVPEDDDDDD

[4] = tested on: mitochondria permeability transition (MPT); assay: MPT modulation assay, digitonin-permeabilized MixCon cells, Ca-Green-5N, cuvette spectrofluorimeter; assay type: cell-based
Experimental: An assay was performed in order to observe the transition induction effect on MPT by the MPT effector, diamide (a thiol oxidizing agent and pro-oxidant). The assay was performed in a digitonin-permeabilized cell line of mixed cybrids, MixCon in the presence of Ca^2+ and Ca-Green-5N and monitored in an LS50B Perkin Elmer Spectrofluorimeter, but is adaptable to the FLIPR system. Initially, ethacrynic acid was added to the MixCon cells in Dulbecco's modified Eagle's medium and 10% FBS, to a final concentration of 100 micromolar and preincubated for 5 minutes to remove the ability of cells to deal with oxidative stress making cells susceptible to the pro-oxidant. The cells were then centrifuged, growth media was aspirated, and cells resuspended, at 1.1×10^7 cells/milliliter, in 2 milliliters of respiratory media containing digitonin (MM-D) whereupon the digitonin (dig) permeabilizes the cells. The suspension was then transferred to a spectrofluorimetric cuvette. The cuvette was placed in the fluorimeter and 0.3 microliters of a 254 millimolar CaCl2 stock was added to the cuvette (final CaCl2 concentration of 40 micromolar). After approximately three minutes diamide was added to the cuvette to a final concentration of 500 micromolar].

Ca^2+ uniporter [5] = target: T1, Ca^2+ uniporter; assay: Ca^2+ uniporter assay, digitonin-permeabilized suspended HepG2 cells, Calcium-Green-5N on FLIPR, ICMA added between two Ca^2+ pulses; assay type: cell-based; settings: 5 micrograms/milliliter oligomycin, 2 micromolar rotenone, 1 micromolar FCCP; for mitochondrial uptake of the second Ca^2+ pulse: second Ca^2+ pulse at about t=6 min, 1 micromolar RU360
Experimental: A master mix solution (MM Solution) was prepared by the addition of glutamate and malate to final concentrations of 5 millimolar each, MgCl2 to a final concentration of 1 millimolar, EGTA to a final concentrations of 0 to 8 micromolar, and Calcium-Green-5N to a final concentration of 0.1 to 1.0 micromolar, to a basic KCl-based respiratory media (“BReM”) that is described in Table 3. […] The hexapotassiun salt Calcium-Green-5N (Molecular Probes, Eugene, Oreg.) in the MM Solution is a fluorescent dye that has low binding affinity to Ca^2+.
Thapsigargin (Calbiochem, San Diego, Calif.), a Ca^2+ uptake inhibitor of the endoplasmic reticulum (ER), was added to the MM Solution to a final concentration of 1 micromolar to yield a solution designated “MM-T” (i.e., Master Mix with Thapsigargin).
The cell membrane permeabilizing agent digitonin (Sigma, St. Louis, Mo.) was added to MM-T to a final concentration of from about 0.007% to about 0.03% to yield a solution referred to as “MM-TD” (i.e., Master Mix with Thapsigargin and digitonin. CaCl2 was added to MM-T to provide a solution with a determined final concentration of Ca^2+ for the determination of intracellular Ca^2+ flux.
The effects of several intracellular Ca^2+ modulating agents (ICMAs) on permeabilized HepG2 cells were examined as follows. The mitochondrial respiratory inhibitors oligomycin (Calbiochem, San Diego, Calif.) and rotenone (Calbiochem) were added to MM-T to final concentrations of 50 micrograms/milliliter and 20 micromolar, respectively. The uncoupler FCCP was similarly added to MM-T to a 10× concentration (10 micromolar) to yield a stock solution of FCCP, MM-TF (i.e., Master Mix with Thapsigargin and FCCP). The ICMA Ru360, which blocks Ca^2+ uptake into the mitochondria by the calcium uniporter, was added to MM-T to a concentration of 100 micromolar to yield MM-T360 (i.e., Master Mix with Thapsigragin and Ru360). CaCl2 was added to MM-T to yield a 10× solution of CaCl2 (120 micromolar) in MM-T.
HepG2 cells were cultured in Eagle's minimal essential medium (MEM) with non-essential amino acids, sodium pyruvate and Earle's balanced salt solution (BSS), 90%; fetal bovine serum (FBS), 10%. Cells were centrifuged (500×g) and the growth media was aspirated from the pellet. The HepG2 cells were resuspended in MM-TD at a concentration of 1×10^7 cells/milliliter, and 100 microliters of the resuspended permeabilized cells were dispensed into wells of a 96-well Costar 3603 microplate. The plate was placed into a FLIPR™ prewarmed to 37° C. MM-T, 120 micromolar Ca^2+, was dispensed into the cell-containing wells at a volume of 11.1 microliters, yielding a final assay concentration of 12 micromolar Ca^2+. The addition of Ca^2+ at this stage of the assay is referred to as the first calcium pulse and the time at which Ca^2+ is added is designated t=0.
After about three minutes (i.e., at about t=3 min.), 12.3 microliters of one of the ICMA solutions were dispensed into wells containing permeabilized cells to yield final assay concentrations of 5 micrograms/milliliter oligomycin, 2 micromolar rotenone, 1 micromolar FCCP, 1 micromolar RU360, and MM-T (no ICMA).
Cells were exposed to a second calcium pulse by the addition of 13.7 microliters of MM-T, 120 micromolar Ca^2+, to the cells after an additional 3 minutes (i.e., at about t=6 min.).

Ca^2+ uniporter [6] = tested on: Ca^2+ uniporter

uniporter activity profile after the 20 micromolar Ca^2+ pulse (Ca^2+ uniporter [3]; test compounds 1 micromolar): uniporter non-inhibitory profile
Molecule: CN(C)C(=O)/N=N/C(=O)N(C)C [diamide, azodicarboxylic acid bis[dimethylamide]]
time after which the rate of Ca^2+ release substantially increased ([1]; diamide 500 micromolar): about 7.5 minutes
Ca^2+ release from mitochondria after diamide addition ([1]; diamide 500 micromolar, ethacrynic acid 100 micromolar preincubation 14 minutes, 40 micromolar CaCl2): immediately began to slowly release Ca^2+ to the medium
assay profile after the 20 micromolar Ca^2+ pulse [2]: sequestering of Ca^2+ by mitochondria after the Ca^2+ pulse
fluorescence upon addition of diamide in the presence of CsA ([4]; diamide 500 micromolar with 10 micromolar CsA): only a slight increase in fluorescence
time until mitochondria released the sequestered Ca^2+ after diamide addition ([4]; diamide 500 micromolar, cells preincubated with 100 micromolar ethacrynic acid, 40 micromolar CaCl2): ≤ 6 min

Molecule: CO[C@H](C/C=C\C=C\CC/C=C/C[C@H](C)/C=C/C(=C\C(=O)O)CC(=O)O)/C(C)=C\C=C(/C)C(=O)O [bongkrekic acid]
assay profile after the 20 micromolar Ca^2+ pulse [2]: normal mitochondria sequestration of Ca^2+

Molecule: COc1ccc([C@@H]2Sc3ccccc3N(CCN(C)C)C(=O)[C@@H]2OC(C)=O)cc1 [diltiazem]
uniporter activity profile after the 20 micromolar Ca^2+ pulse (Ca^2+ uniporter [3]; test compounds 1 micromolar): do not possess uniporter inhibitory activity

Molecule: C[C@H](CCC(=O)O)C[C@H](C)C[C@H](C)C(=O)/C=C(\O)[C@H](C)C[C@H](C)C/C=C/[C@@H](C)[C@@H](O)[C@@H](C)[C@@H](O)C[C@@H]1CC[C@@](C)([C@H]2CC[C@@](C)([C@@H](C)O)O2)O1 [ionomycin]
fluorescence signal over the 3 minutes after compound addition (retention of the accumulated 6 micromolar Ca^2+) (Ca^2+ uniporter [3]; test compounds 1 micromolar): release Ca^2+ from cell stores
uniporter activity profile after the 20 micromolar Ca^2+ pulse (Ca^2+ uniporter [3]; test compounds 1 micromolar): prevent Ca^2+ uptake and retention by the mitochondria

Molecule: N#CC(C#N)=NNc1cccc(Cl)c1 [CCCP, carbonyl cyanide m-chlorophenyl-hydrazone]
fluorescence signal over the 3 minutes after compound addition (retention of the accumulated 6 micromolar Ca^2+) (Ca^2+ uniporter [3]; test compounds 1 micromolar): release Ca^2+ from mitochondria
uniporter activity profile after the 20 micromolar Ca^2+ pulse (Ca^2+ uniporter [3]; test compounds 1 micromolar): prevent Ca^2+ uptake and retention by the mitochondria

Molecule: C=C1[C@@H]2CC[C@H]3[C@]4(C)C[C@H](O[C@@H]5O[C@H](CO)[C@@H](OS(=O)(=O)O)[C@H](OS(=O)(=O)O)[C@H]5OC(=O)CC(C)C)C[C@@H](C(=O)O)[C@H]4CC[C@]3(C2)[C@H]1O [atractyloside]
assay profile after the 20 micromolar Ca^2+ pulse [2]: initial uptake of Ca^2+ into mitochondria with the slow release of the Ca^2+ into the cytosol
fluorescence signal over the 3 minutes after compound addition (retention of the accumulated 6 micromolar Ca^2+) (Ca^2+ uniporter [3]; test compounds 1 micromolar): slight indication of Ca^2+ release

uniporter activity profile after the 20 micromolar Ca^2+ pulse (Ca^2+ uniporter [3]; test compounds 1 micromolar): uniporter non-inhibitory profile
Molecule: CC(=O)N[C@@H](CS)C(=O)O [N-acetylcysteine]

uniporter activity profile after the 20 micromolar Ca^2+ pulse (Ca^2+ uniporter [3]; test compounds 1 micromolar): uniporter non-inhibitory profile
Molecule: COc1ccc(Cl)cc1C(=O)NCCc1ccc(S(=O)(=O)NC(=O)NC2CCCCC2)cc1 [glyburide]

Molecule: N#CC(C#N)=NNc1ccc(OC(F)(F)F)cc1 [FCCP, carbonyl cyanide p-(trifluoromethoxy)phenyl-hydrazone]
release of sequestered Ca^2+ from mitochondria after addition of the agent (Ca^2+ uniporter [5]; added about 3 min after first 12 micromolar Ca^2+ pulse, thapsigargin present): caused the release of Ca^2+ from mitochondria into the cytosol
mitochondrial uptake of the second Ca^2+ pulse (Ca^2+ uniporter [5]): could not sequester the added Ca^2+
effect on CaUP activity at the lowest concentrations (Ca^2+ uniporter [6]; 0.02 or 0.04 uM FCCP, FCCP at 1 min, Ca^2+ pulse at about 4 min, FIG. 10): difficult to distinguish from the results obtained when no FCCP was present
fluorescence upon addition of the agent, before the Ca^2+ pulse (Ca^2+ uniporter [6]; FCCP added at t=1 min to cells loaded with 6 micromolar Ca^2+, FIG. 11): fluorescence rises slightly
effect of the uncoupler on CaUP activity with decreasing concentration (Ca^2+ uniporter [6]; FCCP from 1.0 uM to 0.02 uM, FIG. 10): decreases in a corresponding manner
further Ca^2+ release on addition of uncoupler after diamide ([1]; FCCP 0.1 micromolar after 500 micromolar diamide): no increased level of fluorescence
further Ca^2+ release on addition of uncoupler after diamide ([4]; FCCP 0.1 micromolar after 500 micromolar diamide, no CsA): no further release of Ca^2+ from the mitochondria
Ca^2+ release on addition of uncoupler in the presence of CsA and diamide ([4]; FCCP after diamide with 10 micromolar CsA): Ca^2+ released from the mitochondria

Molecule: CN1CCN(CCCN2c3ccccc3Sc3ccc(C(F)(F)F)cc32)CC1 [trifluoroperazine]
uniporter activity profile after the 20 micromolar Ca^2+ pulse (Ca^2+ uniporter [3]; test compounds 1 micromolar): do not possess uniporter inhibitory activity

uniporter activity profile after the 20 micromolar Ca^2+ pulse (Ca^2+ uniporter [3]; test compounds 1 micromolar): uniporter non-inhibitory profile
Molecule: CN(CC(=O)O)C(=N)N [creatine]

Molecule: CCC(C)N(C)C(=O)c1cc2ccccc2c(-c2ccccc2Cl)n1 (stereo not shown) [PK-11195]
uniporter activity profile after the 20 micromolar Ca^2+ pulse (Ca^2+ uniporter [3]; test compounds 1 micromolar): uniporter non-inhibitory profile

uniporter activity profile after the 20 micromolar Ca^2+ pulse (Ca^2+ uniporter [3]; Ru360 10 micromolar): no uptake of Ca^2+ by the uniporter
Molecule: Ru360
mitochondrial uptake of the second Ca^2+ pulse (Ca^2+ uniporter [5]): prevented the uptake of Ca^2+ by the Ca Uniporter

Molecule: N=C(N)NC(=O)c1nc(Cl)c(N)nc1N [amiloride]
uniporter activity profile after the 20 micromolar Ca^2+ pulse (Ca^2+ uniporter [3]; test compounds 1 micromolar): do not possess uniporter inhibitory activity

uniporter activity profile after the 20 micromolar Ca^2+ pulse (Ca^2+ uniporter [3]; test compounds 1 micromolar): uniporter non-inhibitory profile
Molecule: O=C1CN(/N=C/c2ccc(-c3ccc([N+](=O)[O-])cc3)o2)C(O)=N1 [dantrolene]

Reference: US6808873B2, “Screening assays using intramitochondrial calcium” (MitoKor, Inc., priority 2000, dated 2004)
